Assay results as given in patent publication US8173145B2, “Formulation containing phosphate derivatives of electron transfer agents” (Vital Health Sciences Pty. Ltd., priority 2000, dated 2012).

Experiment: foam stability / surface active properties test
Format: physicochemical
Conditions: 0.1 g in 10 ml distilled water, shaken; foam examined daily over four days
Procedure: 0.1 g of pure di-sodium mono-tocopheryl phosphate was dissolved in 10 ml of pure distilled water in a 50 ml cylindrical stoppered vessel.

Foam stability: complete stability for one day
Structure (SMILES): Cc1c(C)c2c(c(C)c1OP(=O)([O-])[O-])CC[C@@](C)(CCC[C@H](C)CCC[C@H](C)CCCC(C)C)O2.[Na+].[Na+] [di-sodium mono-tocopheryl phosphate]
